Tested on: IL-6
Assay: Anti-inflammation efficacy in THP-1 in vitro assay: IL-6 in supernatant of PMA-differentiated, LPS-stimulated THP-1 monocytes (BD Elisa kit)
Assay type: cell-based
Settings: for concentration of IL-6 as a % of that obtained for LPS (% of LPS): Table 1, LPS 1 μg/ml, 24 hours incubation, concentration of active(s) as given per example, lower = higher anti-inflammatory potential; for % of LPS (IL-6): DHA, concentration per example
Description: The following procedure was used to test the anti-inflammation efficacy of the various actives alone as well as in combination. In the examples, HR means hexyl resorcinol, DHA means docosahexaenoic acid. • (i) 5×10^5 THP-1 monocytes were placed into 24-well plates, with 100 nM […] in the culture media to differentiate the cells. • (ii) After 72 hours differentiation, treatments as follows were applied to the cells. […] (2) LPS-1 μg/ml; (3) Dex-50 nM; (4) DHA-200 μM; (5) DHA-100 μM; (6) DHA-20 μM; (7) HR-50 μM; (8) HR-25 μM; (9) HR-100 μM; […] (11) DHA-100 μM+HR-50 μM; (12) DHA-100 μM+HR-25 μM; (13) DHA-20 μM+HR-100 μM (14) DHA-20 μM+HR-10 μM. • (iii) After 24 hours incubation the supernatants were collected. • (iv) Then IL-6 concentration was tested in the supernatant by BD Elisa kit. The lower the percentage, the higher the anti-inflammatory potential. […] Further information about the experiment nos 12 to 24 is as follows: • Example 12: […] Combination of 50 μM DHA and 12.5 μM of HR. • Example 23: […] Combination of 50 μM DHA and 12.5 μM of ZnCl2. • Example 31: […] Combination of 12.5 μM DHA and 3.125 μM of ZnCl2. Experiments were carried out, according to the procedure described earlier, at various concentrations of DHA along with certain other actives outside the invention viz. BOP (benzoyl peroxide) and SDS (sodium dodecyl sulphate). These actives have been disclosed as additional ingredients in EP0138480 A1. The data below is expressed in % IL-6 inhibition rate in Table-3 below. • Example 33, 34, 35, 36: […] Combination of 50 μM DHA and 12.5 μM of BPO. • Example 43: […] Combination of 12.5 μM DHA and 3.125 μM of BPO. • Example 45, 46, 47, 48: […] Combination of 50 μM DHA and 12.5 μM of SDS. • Example 51: […] Combination of 12.5 μM DHA and 3.125 μM of SDS.

[1] = Table 2, LPS 1 μg/mL, HR, ZnCl2 alone and combined
[2] = Table 3, LPS 1 μg/mL, BPO, SDS alone and combined
[3] = Table 3, LPS 1 μg/mL, BPO, SDS alone and combined, sulphate

With `CC/C=C\C/C=C\C/C=C\C/C=C\C/C=C\C/C=C\CCC(=O)O` [Example 2, docosahexaenoic acid] the “concentration of IL-6 as a % of that obtained for LPS (% of LPS)” value (“concentration of IL-6 as a % … (% of LPS)” below) was 14.7%.
For `CC/C=C\C/C=C\C/C=C\C/C=C\C/C=C\C/C=C\CCC(=O)O` [Example 3, docosahexaenoic acid], the “concentration of IL-6 as a % … (% of LPS)” value was 58.5%.
In the case of `CCCCCCc1ccc(O)cc1O` [Example 4, hexyl resorcinol], the “concentration of IL-6 as a % … (% of LPS)” value is reported as 41.1%.
With `CCCCCCc1ccc(O)cc1O` [Example 5, hexyl resorcinol] the “concentration of IL-6 as a % … (% of LPS)” value was 54.5%.
In the case of `CCCCCCc1ccc(O)cc1O` [Example 6, hexyl resorcinol], the “concentration of IL-6 as a % … (% of LPS)” value is reported as 41.1%.
For `CCCCCCc1ccc(O)cc1O` [Example 7, hexyl resorcinol], the “concentration of IL-6 as a % … (% of LPS)” value was 63.1%.
`CC/C=C\C/C=C\C/C=C\C/C=C\C/C=C\C/C=C\CCC(=O)O` [Example 13, docosahexaenoic acid] was tested, and the “% of LPS (IL-6)” value [1] was 9.9%.
In the case of `CC/C=C\C/C=C\C/C=C\C/C=C\C/C=C\C/C=C\CCC(=O)O` [Example 14, docosahexaenoic acid], the “% of LPS (IL-6)” value [1] is reported as 29.0%.
In the case of `CC/C=C\C/C=C\C/C=C\C/C=C\C/C=C\C/C=C\CCC(=O)O` [Example 15, docosahexaenoic acid], the “% of LPS (IL-6)” value [1] is reported as 48.8%.
In the case of `CC/C=C\C/C=C\C/C=C\C/C=C\C/C=C\C/C=C\CCC(=O)O` [Example 16, docosahexaenoic acid], the “% of LPS (IL-6)” value [1] is reported as 63.1%.
For `CCCCCCc1ccc(O)cc1O` [Example 17, hexyl resorcinol], the “% of LPS (IL-6)” value [1] was 43.0%.
With `CCCCCCc1ccc(O)cc1O` [Example 18, hexyl resorcinol] the “% of LPS (IL-6)” value [1] was 55.4%.
With `CCCCCCc1ccc(O)cc1O` [Example 19, hexyl resorcinol] the “% of LPS (IL-6)” value [1] was 60.3%.
In the case of `CCCCCCc1ccc(O)cc1O` [Example 20, hexyl resorcinol], the “% of LPS (IL-6)” value [1] is reported as 66.4%.
With `[Cl-].[Cl-].[Zn+2]` [Example 25, Zinc chloride] the “% of LPS (IL-6)” value [1] was 93.4%.
For `[Cl-].[Cl-].[Zn+2]` [Example 26, Zinc chloride], the “% of LPS (IL-6)” value [1] was 96.3%.
With `[Cl-].[Cl-].[Zn+2]` [Example 27, Zinc chloride] the “% of LPS (IL-6)” value [1] was 97.7%.
With `[Cl-].[Cl-].[Zn+2]` [Example 28, Zinc chloride] the “% of LPS (IL-6)” value [1] was 91.6%.
For `CC/C=C\C/C=C\C/C=C\C/C=C\C/C=C\C/C=C\CCC(=O)O` [Example 33, docosahexaenoic acid], the “% of LPS (IL-6)” value [2] was 10.7%.
With `CC/C=C\C/C=C\C/C=C\C/C=C\C/C=C\C/C=C\CCC(=O)O` [Example 34, docosahexaenoic acid] the “% of LPS (IL-6)” value [2] was 36.0%.
For `CC/C=C\C/C=C\C/C=C\C/C=C\C/C=C\C/C=C\CCC(=O)O` [Example 35, docosahexaenoic acid], the “% of LPS (IL-6)” value [2] was 56.8%.
With `CC/C=C\C/C=C\C/C=C\C/C=C\C/C=C\C/C=C\CCC(=O)O` [Example 36, docosahexaenoic acid] the “% of LPS (IL-6)” value [2] was 72.0%.
`O=C(OOC(=O)c1ccccc1)c1ccccc1` [Example 37, benzoyl peroxide] was tested, and the “% of LPS (IL-6)” value [2] was 103.4%.
For `O=C(OOC(=O)c1ccccc1)c1ccccc1` [Example 38, benzoyl peroxide], the “% of LPS (IL-6)” value [2] was 100.6%.
`O=C(OOC(=O)c1ccccc1)c1ccccc1` [Example 39, benzoyl peroxide] was tested, and the “% of LPS (IL-6)” value [2] was 102.7%.
For `O=C(OOC(=O)c1ccccc1)c1ccccc1` [Example 40, benzoyl peroxide], the “% of LPS (IL-6)” value [2] was 95.1%.
With `CCCCCCCCCCCCOS(=O)(=O)[O-].[Na+]` [Example 45, sodium dodecyl sulphate] the “% of LPS (IL-6)” value [3] was 84.6%.
In the case of `CCCCCCCCCCCCOS(=O)(=O)[O-].[Na+]` [Example 46, sodium dodecyl sulphate], the “% of LPS (IL-6)” value [3] is reported as 86.1%.
For `CCCCCCCCCCCCOS(=O)(=O)[O-].[Na+]` [Example 47, sodium dodecyl sulphate], the “% of LPS (IL-6)” value [3] was 81.3%.
For `CCCCCCCCCCCCOS(=O)(=O)[O-].[Na+]` [Example 48, sodium dodecyl sulphate], the “% of LPS (IL-6)” value [3] was 80.5%.

— patent US11419801B2, “Personal care composition” (Conopco, Inc., priority 2017, dated 2022)
